The structures appear in SMILES notation. Marks after values point to notes of the source that are not given here.

The values that follow come from article PMC11040670, “Mechanistic and Kinetic Insights into Cellular Uptake of Biomimetic Dinitrosyl Iron Complexes and Intracellular Delivery of NO for Activation of Cytoprotective HO-1” (JACS Au, 2024).

Data set [1] can be described thus: NO-release reactivity of DNICs (total nitrate/nitrite assay). The settings on record: dinuclear DNIC 25 μM, phosphate buffer (pH 7.4), no additive, normoxia, 37 °C. It counts as physicochemical. As for the experimental part: The NO-release reactivity of DNICs in 50 mM potassium phosphate buffer (pH 7.4) under normoxia condition at 37 °C was investigated using Nitrate/Nitrite Colorimetric Assay Kit (Item No. 780001, Cayman). After addition of 10 μL of 100 mM stock solution of DNIC–COOH (or DNIC–COOMe) in DMSO to 990 μL of 50 mM potassium phosphate buffer (pH 7.4), 25 μM of DNIC–COOH (or DNIC–COOMe) was prepared by the addition of 0.125 mL of this 1 mM solution of DNIC–COOH (or DNIC–COOMe) to 4.875 mL of 50 mM potassium phosphate buffer (pH 7.4). This solution was incubated at 37 °C under normoxia condition for 0, 1, 2, 4, 8, 24, 48, and 72 h, respectively. Then, 40 μL of the solution was collected to assess the release of NO using a Nitrate/Nitrite Colorimetric Assay Kit (Item No. 780001, Cayman). After each 40 μL aliquot of the aqueous solution was mixed with 40 μL of kit assay buffer, 10 μL of Enzyme Cofactor Mixture (Item No. 780012) and 10 μL of nitrate reductase mixture (Item No. 780010) were added before this mixture solution was incubated at room temperature for 1 h. […] The absorbance at 540 nm was then recorded using a microplate reader (SpectraMax iD3, Molecular Devices, San Jose, CA) with a reference wavelength of 800 nm. […]

The test system of another data set is MSC/N2a/HCEC. Description: Intracellular release of NO, stated jointly for MSC/N2a/HCEC. It is filed as cell-based. As to the method:
Intracellular release of NO by DNIC–COOH was validated using the fluorescence probe 4-amino-5-methylamino-2′,7′-difluorofluorescein diacetate (DAF-FM) in combination with fluorescence analysis techniques. Briefly, the MSC cells (or N2a and HCEC cells) were seeded onto a 96-well black plate at a density of 6 × 10^3 cells/well (or 1 × 10^4 cells/well for N2a and 8 × 10^3 cells/well for HCEC cells) and incubated at 37 °C overnight. On the next day, the MSC cells were first treated with 10 μM of DAF-FM (or 5 μM for N2a and HCEC cells) and incubated at 37 °C for 0.5 h. […] Fluorescence intensity of the cells was then recorded using a microplate reader (SpectraMax iD3, Molecular Devices, San Jose, CA) with an excitation wavelength at 485 nm and an emission wavelength at 525 nm. Three independent experiments were executed to measure the time-dependent change of average fluorescence intensity. Time-dependent change of average fluorescence intensity for the MSC/N2a/HCEC cells with sequential treatment of DAF-FM (10 μM for MSC cells, 5 μM for N2a cells, 5 μM for HCEC cells; 0.5 h) and DNIC–COOMe (2.5 μM for MSC cells, 10 μM for N2a cells, 1 μM for HCEC cells) was determined in a similar manner.

The next data set has as its system HO-1 protein. In words: ELISA of intracellular HO-1 protein in MSC. It is filed as cell-based, human. As for the experimental part: After the treatments of DNIC–COOH/DNIC–COOMe to the MSC cells following the procedure described above, the intracellular level of HO-1 protein in DNIC-treated MSC cells was also determined by ELISA (Abcam, Cambridge, MA) according to the manufacturers’ protocols.
For orientation: In an ELISA, binding on a coated surface is turned into a signal by an enzyme label.

Consider `O=[N][Fe]1([N]=O)[SH](CCC(=O)O)[Fe]([N]=O)([N]=O)[SH]1CCC(=O)O` (stereo not drawn) [DNIC–COOH, [(NO)2Fe(μ-SCH2CH2COOH)2Fe(NO)2]], for which, in data set [1], the “t1/2 for release of NO from DNICs” value was 10.7 ± 1.4 ^e h. In addition, the “tmax for intracellular release of free NO” value in the data set with MSC/N2a/HCEC was 4 to 6 h. The “expression of HO-1 protein” value in the data set on HO-1 protein (at 8 h, 100 μM DNIC–COOH) came out at 32.0 ± 4.4 fold.
For `COC(=O)CC[SH]1[Fe]([N]=O)([N]=O)[SH](CCC(=O)OC)[Fe]1([N]=O)[N]=O` (stereo not drawn) [DNIC–COOMe, [(NO)2Fe(μ-SCH2CH2COOCH3)2Fe(NO)2]], the “t1/2 for release of NO from DNICs” value in data set [1] is listed as 9.1 ± 0.6 ^e h. In addition, the “tmax for intracellular release of free NO” value with MSC/N2a/HCEC was in the range of 1 to 2 h. In addition, the “expression of HO-1 protein” value with HO-1 protein (at 6 h, 2.5 μM DNIC–COOMe) is recorded as 8.1 ± 0.9 fold.
